No end group written: not given here.
Experiments:
Type in all cases: biochemical
[1] = target: T1, thromboplastin, reconstituted in phosphatidylcholine (Homo sapiens, UniProt P13726); assay: Inhibition of delipidated thromboplastin reconstituted in phosphatidylcholine; conditions: 500 nM sample, 37° C., 30 min
T1 construct: purchased Gamidor Ltd. (Oxfordshire, U.K.)
Protocol: In other experiments, recombinant thromboplastin (1 mg/ml) was delipidated with chloroform/methanol as described previously, to remove phosphatidylserine and other lipids and reconstituted with phosphatidylcholine (1 mg/ml) to differentiate between the effects of the prepared samples on the protein moiety of thromboplastin and any effects on the thromboplastin-associated phosphatidylserine. […] The percentage inhibition was calculated against the control sample.
Recombinant thromboplastin was delipidated to remove phosphatidylserine and other lipids and reconstituted at 1 mg/ml with phosphatidylcholine (1 mg/ml). […] The % Inhibition was calculated against the control. The data were obtained from 3 separate experiments.

factor Xa = factor Xa (Homo sapiens, UniProt P00742); assay: Influence on factor Xa activity (amidolytic and clotting in factor Xa-deficient plasma)
Protocol: Samples (1 ml) of either KRAD-14 peptide (500 nM) or the control peptide 500 nM) were incubated with pre-activated factor Xa (100 nM) at 37° C. and the factor Xa activity measured at the beginning and at intervals up to 60 min as follows. The enzymatic activity of factor Xa was measured by the addition of 100 μl aliquots to 0.45 ml of thrombin substrate (N-benzoyl-ile-glu-gly-arg-p-nitroanilide) (0.26 mM) which was then incubated at 37° C. for exactly 10 min, before the addition of 0.45 ml of 20% (w/v) acetic acid. The absorption was measured at 405 nm against a factor Xa (100 nM) control assayed similarly. The procoagulant activity of factor Xa was measured by the addition of 100 μl of the sample to factor Xa-deficient plasma (100 μl) and […] CACl2 solution and measuring the clotting time. A factor Xa (100 nM) control was included in the assay against which comparisons were made.
Three 1 ml samples containing recombinant KRAD-14 peptide (20 (♦), 40 (▾) and 80 (▪) nM) were mixed with factor Xa (100 nM). […] The rest of the samples were incubated at 37° C. and further 100 μl samples were removed at intervals up to 40 min and measured as before. The activity was measured against a standard curve and the percentage inhibition calculated against the initial factor Xa activity. […]

factor V = assay: Influence on factor V procoagulant activity (factor V-deficient plasma); conditions: factor V 1 μM, 37° C., preactivated factor V deficient plasma; read-out: Kdapp, inhibition of coagulation upon pre-incubation with factor V
Protocol: Samples (1 ml) of either KRAD-14 peptide (500 nM) or the control peptide (500 nM) were incubated with pre-activated factor V (100 nM) at 37° C. and the factor V activity measured at the beginning and at intervals up to 60 min as follows. The procoagulant activity of factor V was measured by the addition of 100 μl of the sample to factor V-deficient plasma (100 μl) pre-activated by incubation (2 min) with thromboplastin (200 nM) in the presence of CACl2 (25 mM), and measuring the clotting time. The activity was measured against a standard curve and the percentage inhibition calculated against the initial factor V activity. The curves are typical of data from three separate experiments.
Three 1 ml samples containing recombinant KRAD-14 peptide (20 (♦) 40 (▾) and 80 (▪) nM) were mixed with factor V (1 μM). 100 μl of the each sample was removed immediately and assayed for […] by addition to factor V-deficient plasma, pre-activated by incubation (2 min) with thromboplastin (200 nM) in the presence of CaCl2 (25 mM), and measuring the clotting time. The rest of the samples were incubated at 37° C. and further 100 μl samples were removed at intervals up to 40 min and measured as before. The activity was measured against a standard curve and the percentage inhibition calculated against the initial factor V activity. The curves are typical of data from 3 separate experiments.

[2] = tested on: factor VII/thromboplastin; assay: Effect on activation and activity of factor VII (clotting in factor VII deficient plasma)
Protocol: In order to assess whether the action of KRAD-14 peptide was directed to the proteolytic activity of factor VIIa/thromboplastin or the activation of factor VII by interaction with thromboplastin, first thromboplastin (200 nM) and factor VII (200 nM) were incubated for 10 min in the presence of 25 mM CaCl2, prior to addition of KRAD-14 peptide and a further 10 min incubation. The samples were then assayed by addition to factor VII deficient plasma and measuring the clotting time. Appropriate controls devoid of KRAD-14 peptide were included in each experiment.
In order to assess whether the action of KRAD-14 peptide was directed to the proteolytic activity of factor VIIa/thromboplastin or the activation of factor VII by interaction with thromboplastin, first thromboplastin (200 nM) and factor VII (200 nM) were incubated for 10 min in the presence of 25 mM CaCl2, prior to addition of […] (500 nM) and a further 10 min incubation. In the second experiment thromboplastin, factor VII and factor Xa (100 nM) were pre-incubated for 10 min in the presence of 25 mM CaCl2, prior to addition of KRAD-14 peptide and a further 10 min incubation. The samples were then assayed by addition to factor VII deficient plasma and measuring the clotting time. […] Conversely, it was able to inhibit the activation of the pro-enzyme (inhibition=74%+8) (Table 2). […]

T1 sequence (P13726 33-295): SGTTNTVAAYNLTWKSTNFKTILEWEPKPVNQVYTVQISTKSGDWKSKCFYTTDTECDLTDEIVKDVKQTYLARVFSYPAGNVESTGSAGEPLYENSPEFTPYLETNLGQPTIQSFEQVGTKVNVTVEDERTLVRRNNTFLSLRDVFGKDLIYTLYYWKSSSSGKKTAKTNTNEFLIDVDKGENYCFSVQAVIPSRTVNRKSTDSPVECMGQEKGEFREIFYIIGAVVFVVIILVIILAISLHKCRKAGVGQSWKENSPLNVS
Chain of factor Xa (P00742 235-488 limits assumed): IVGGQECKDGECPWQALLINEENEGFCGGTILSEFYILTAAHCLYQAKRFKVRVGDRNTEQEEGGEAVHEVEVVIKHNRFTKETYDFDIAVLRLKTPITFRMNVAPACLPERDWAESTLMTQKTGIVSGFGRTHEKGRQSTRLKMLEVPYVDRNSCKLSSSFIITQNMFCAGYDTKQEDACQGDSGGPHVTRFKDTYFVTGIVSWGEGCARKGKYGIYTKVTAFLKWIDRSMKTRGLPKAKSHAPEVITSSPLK
Chain of factor Xa (P00742 41-179 limits assumed): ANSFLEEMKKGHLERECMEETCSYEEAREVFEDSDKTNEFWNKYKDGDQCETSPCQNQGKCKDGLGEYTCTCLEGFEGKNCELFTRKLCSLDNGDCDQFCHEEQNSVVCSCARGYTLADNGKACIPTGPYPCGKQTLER

## KAQSKKNKHRHSTT [KRAD-14]
[1]; against distilled water control
  inhibition at 0.5 µM: > 99%
[1]; against distilled water control, listed as Recombinant KRAD-14 peptide
  % Inhibition: 99%
[1]; distilled water control 4.70 U/ml
  Procoagulant Activity: (0.05 U/ml)
Factor Xa; 500 nM peptide
  effect on the amidolytic activity of factor Xa: did not affect
Factor Xa; factor Xa 100 nM, 37° C., factor Xa deficient plasma, read-out: Kdapp, inhibition of coagulation upon pre-incubation with factor Xa
  Kd: 275 nM
Factor V
  Kd: 285 nM
[2]; peptide 500 nM added after pre-incubation, further 10 min, factor VII deficient plasma
  inhibition of the activity of factor VIIa: 12%
[2]; thromboplastin 200 nM, factor VII 200 nM, 25 mM CaCl2, peptide 500 nM, 10 min
  inhibition of the activation of the pro-enzyme (factor VII): 74%

— patent US6444644B1, “Anticoagulant peptide fragments derived from apolipoprotein B-100” (University College London, priority 1996, dated 2002)
